Test results as given in PMC5355877, “The development of novel LTA4H modulators to selectively target LTB4 generation” (Scientific Reports, 2017).
Several values for one entry are separate records, joined by “and”; a condition that tells them apart may be missing. Identical values can stand only once. Like-named read-outs stand apart in the source and are kept apart here.

Columns and labels:
[1] = target: T1, LTA4H epoxide hydrolase activity (LTB4 generation) (Mus musculus, UniProt P24527); assay: LTA4H epoxide hydrolase activity: LTB4 generation by A23187-treated murine bone marrow neutrophils (EIA); assay type: cell-based; conditions: for IC50: LTB4 generation, murine neutrophils, read-out: Epoxide Hydrolase IC50 ± SEM
T1 construct: endogenous in cells; host or cells: murine bone marrow neutrophils
T1 sequence (P24527 1-611): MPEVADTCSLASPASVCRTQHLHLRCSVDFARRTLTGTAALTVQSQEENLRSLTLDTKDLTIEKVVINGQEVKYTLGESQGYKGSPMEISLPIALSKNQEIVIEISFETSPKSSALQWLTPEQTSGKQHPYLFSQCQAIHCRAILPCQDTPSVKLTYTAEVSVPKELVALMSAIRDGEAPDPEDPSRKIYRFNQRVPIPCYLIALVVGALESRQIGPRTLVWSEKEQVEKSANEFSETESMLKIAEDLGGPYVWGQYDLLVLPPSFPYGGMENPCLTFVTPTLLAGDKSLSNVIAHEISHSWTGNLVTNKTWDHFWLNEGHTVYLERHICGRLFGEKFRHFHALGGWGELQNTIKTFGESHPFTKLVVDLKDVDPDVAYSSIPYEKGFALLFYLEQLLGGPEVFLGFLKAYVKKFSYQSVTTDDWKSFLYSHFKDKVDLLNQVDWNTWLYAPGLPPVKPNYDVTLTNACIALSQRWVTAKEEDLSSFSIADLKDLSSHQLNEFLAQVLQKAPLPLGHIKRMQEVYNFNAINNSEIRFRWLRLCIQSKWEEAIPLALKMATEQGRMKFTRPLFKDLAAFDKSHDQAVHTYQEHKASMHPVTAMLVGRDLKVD
Protocol: To isolate murine bone marrow neutrophils, the femur and the tibia from both hind legs were removed and freed of soft tissue attachments, and the extreme distal tip of each extremity cut off. HBSS containing 15 mM EDTA and 30 mM HEPES was forced through the bone with a syringe. After dispersing cell clumps and passage through a […] sieve (BD labware, New Jersey), red blood cells were lysed by resuspending pellets in ACK buffer (for 3 minutes at room temperature) before centrifugation (800 × g, 5 min) and washing with HBSS. The cell suspension was centrifuged (800 × g, 5 min, 4 °C) and resuspended in RPMI.
(§1) 1% DMSO was used as a control. Cells were incubated for 20 minutes at 37 °C, and the reaction was terminated by centrifugation (600 × g, 5 min, 4 °C). Supernatants were removed and stored at −80 °C for subsequent LTB4 analysis. The concentration of LTB4 generated in the epoxide hydrolase activity assay was assayed using an EIA, according to manufacturer’s directions (R&D systems, Minneapolis, MN). Test compounds were assayed in a blinded manner by an investigator during determination of effect on LTA4H epoxide hydrolase activity.

[2] = target: T2, recombinant human LTA4H (aminopeptidase, PGP substrate) (Homo sapiens, UniProt P09960); assay: LTA4H aminopeptidase activity: PGP degradation by recombinant human LTA4H; assay type: biochemical
T2 construct: purchased Cayman Chemicals
T2 sequence (P09960 1-611): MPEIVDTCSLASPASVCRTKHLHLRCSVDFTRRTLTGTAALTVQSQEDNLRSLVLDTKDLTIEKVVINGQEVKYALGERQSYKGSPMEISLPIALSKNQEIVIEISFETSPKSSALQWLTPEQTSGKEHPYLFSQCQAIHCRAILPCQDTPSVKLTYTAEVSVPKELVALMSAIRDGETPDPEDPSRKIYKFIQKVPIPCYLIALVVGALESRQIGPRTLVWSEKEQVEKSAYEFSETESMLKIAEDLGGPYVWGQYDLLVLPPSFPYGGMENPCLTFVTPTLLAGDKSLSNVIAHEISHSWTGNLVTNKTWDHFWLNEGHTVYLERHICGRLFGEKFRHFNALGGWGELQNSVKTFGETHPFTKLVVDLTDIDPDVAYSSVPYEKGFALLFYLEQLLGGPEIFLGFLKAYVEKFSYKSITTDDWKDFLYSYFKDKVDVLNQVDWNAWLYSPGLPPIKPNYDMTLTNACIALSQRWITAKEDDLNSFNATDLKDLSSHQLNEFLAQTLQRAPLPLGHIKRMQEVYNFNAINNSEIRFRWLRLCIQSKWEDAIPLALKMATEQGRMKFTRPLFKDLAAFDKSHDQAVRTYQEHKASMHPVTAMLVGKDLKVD
Protocol: For peptide quantification in serum, PGP and AcPGP were measured using a MDS Sciex API-4000 spectrometer (Applied Biosystems, Foster City, CA) equipped with a Shimadzu HPLC (Columbia, MD). For peptide quantification from degradation experiments, PGP and AcPGP were measured using a Thermo Accela Pump and Autosampler coupled to a Thermo TSQ Quantum Access. […] Peak area was measured, and PGP/AcPGP peptide concentrations were calculated using a relative standard curve method as previously described.
Mouse serum (diluted 1/10 in PBS) or recombinant human LTA4H (0.1 μg/ml; Cayman Chemicals, Michigan, USA) were incubated with 0.4 mM PGP at 37 °C in 5% CO2 for varying periods of time. Concentrations of PGP remaining were subsequently quantified by ESI-LC/MS/MS (as discussed above) by comparison with PGP standards. The percentage of peptide degraded was determined relative to control samples of 0.4 mM PGP alone. PGP degradation was also assessed by measurement of free proline released and its ensuing reaction with Ninhydrin (as discussed below). Test compounds were assayed in a blinded manner by an investigator during determination of the effect on LTA4H aminopeptidase activity.
To assess free proline liberated, aliquots from PGP degradation experiments were diluted 1 in 10 in PBS (to a final volume of 250 μl). Glacial acetic acid (250 μl) was then added, followed by 250 μl of ninhydrin solution (25 mg/ml in acetic acid/6 M phosphoric acid; heated at 70 °C to dissolve). The reaction mixture was heated at 100 °C for 60 minutes, allowed to cool to room temperature and the proline containing fraction extracted with 500 μl of toluene and optical density measured at 520 nm.

LTA4H (PGP degradation) = system: LTA4H (PGP degradation); set-up: method as in PMID 24591641; conditions: concentration of 100 μM; 5 μg/ml LTA4H; cited from earlier work
[3] = system: LTB4 production by neutrophils; set-up: method as in PMID 24591641; conditions: cited from earlier work
logD pH7.4 = assay type: physicochemical; conditions: pH 7.4; read-out: logDpH7.4
Source text: (§2) ARM1 (4-(4-benzylphenyl)-1,3-thiazole-2-amine), compound 11 (7-hydroxy-3-(4-hydroxyphenyl)-4H-chromen-4-one) and compound 13 (7-hydroxy-3-phenyl-4H-chromen-4-one) were all purchased from VitasMLab (Kowloon, Hong Kong). […] All other compounds were custom synthesized by Peakdale Molecular as described in Supplementary Information. ADMET (absorption, distribution, metabolism, and excretion – toxicity) studies were also outsourced to Peakdale Molecular.

[4] = Mouse liver microsome stability; assay type: in vitro ADME; conditions: liver microsomes
Source text: as §2

[5] = target: T3, LTA4H epoxide hydrolase activity (LTB4 generation) (Homo sapiens, UniProt P09960); assay: LTB4 generation by human blood-derived neutrophils; assay type: cell-based; conditions: preliminary data, blood-derived neutrophils from two distinct donors
T3 construct: endogenous in cells; host or cells: human peripheral blood neutrophils from healthy volunteers
T3 sequence (P09960 1-611): T2 sequence (P09960 1-611)
Protocol: To isolate human neutrophils, peripheral blood was taken from healthy volunteers following informed consent and according to an approved protocol. Neutrophils were subsequently isolated using the MACSxpress™ Neutrophil Isolation Kit (Miltenyi Biotec, UK).
as §1, with “1 × 10^5 murine bone marrow-derived neutrophils or human blood-derived neutrophils (compound 9 only) in 100 μl of RPMI were treated with A23187 at a final concentration of 20 μg/ml. 1%” for “1%”

[6] = Human liver microsome stability; assay type: in vitro ADME; conditions: liver microsomes
Source text: as §2

[7] = Mouse plasma protein binding; assay type: in vitro ADME
Source text: as §2

[8] = Human plasma protein binding; assay type: in vitro ADME
Source text: as §2

[9] = set-up: method as in PMID 12540402; conditions: metabolic stability reported; cited from earlier work

Question: Which IC50 ([1]; Table 1) does the source give for `Nc1nc(-c2ccc(Cc3ccccc3)cc2)cs1` [ARM1, 4-(4-benzylphenyl)-1,3-thiazole-2-amine, reference compound] here?
Answer: The IC50 was 0.6 ± 0.0662 µM.

Question: What about the IC50 ([2]; PGP degradation, recombinant LTA4H, Table 1, read-out: Aminopeptidase IC50 ± SEM) of the same compound?
Answer: The IC50 was 9.11 µM.

Question: What about the IC50 ([2]; read-out: IC50 for inhibiting PGP degradation) of the same compound?
Answer: The IC50 was roughly 9.1 µM.

Question: And the “inhibition of PGP degradation at 100 μM” value (LTA4H (PGP degradation))?
Answer: The value was “no inhibition”.

Question: And the IC50 [3]?
Answer: The IC50 was 0.5 µM and ~0.5 µM.

Question: Which logD (logD pH7.4) does the source give for `COc1cc(O)cc(CCc2ccccc2O)c1` [Compound 9] here?
Answer: Its logD is 2.25 ± 0.1.

Question: And the IC50 ([1]; Table 2)?
Answer: Its IC50 is 0.5 ± 0.04 µM.

Question: What about the “augmentation of LTB4 inhibitory capacity” value ([1]; relocation of hydroxyl to R3-position, relative to compound 6) of the same compound?
Answer: The value was 10 fold.

Question: What about the microsomal CLint [4] of the same compound?
Answer: Its microsomal CLint is 466 ± 100 µL/min/mg.

Question: And the half-life ([4]; read-out: Mouse liver microsomes t1/2)?
Answer: The half-life was 1.5 min.

Question: What about the IC50 ([2]; PGP degradation, Table 2, read-out: Aminopeptidase IC50 ± SEM) of the same compound?
Answer: Its IC50 is greater than 100 µM.

Question: What about the “inhibition of PGP degradation at 100 μM” value ([2]; concentration of 100 μM) of the same compound?
Answer: The value was “no inhibition”.

Question: What about the IC50 [5] of the same compound?
Answer: The IC50 was 2.4 µM.

Question: What about the microsomal CLint [6] of the same compound?
Answer: The microsomal CLint was 59.5 µL/min/mg.

Question: And the half-life ([6]; read-out: Human liver microsomes t1/2)?
Answer: The half-life was 11.7 min.

Question: What about the fraction unbound [7] of the same compound?
Answer: The fraction unbound was 0.0213.

Question: What about the fraction unbound [8] of the same compound?
Answer: Its fraction unbound is 0.0225.

Question: With `O=c1c(-c2ccc(O)cc2)coc2cc(O)ccc12` [Compound 11, 7-hydroxy-3-(4-hydroxyphenyl)-4H-chromen-4-one] as the compound, how does the IC50 ([1]; Table 3) read?
Answer: Its IC50 is 15 ± 2.3 µM.

Question: And the IC50 ([2]; PGP degradation, Table 3, read-out: Aminopeptidase IC50 ± SEM)?
Answer: Its IC50 is greater than 100 µM.

Question: What about the t1/2 [9] of the same compound?
Answer: Its t1/2 is 465 ± 21.6 min.
